# Columns and labels:
# [1] = tested on: 59 different human tumor cell lines; assay: NCI-60 DTP human tumor cell line screen, single concentration, mean over panel; format: cell-based; conditions: single concentration 10 μM, mean over 59 human tumor cell lines; for inhibition at 10 µM: Homo sapiens, read-out: mean growth inhibition; for NCI Screen Mean % Growth: 48 hours, SRB
# Protocol: (§1) Several compounds were tested at single concentrations (10 μM) against 59 different human tumor cell lines, representing leukemia, melanoma and cancers of the lung, colon, brain, ovary, breast, prostate, and kidney (see, Table 3). The human tumor cell lines of the cancer screening panel were grown in RPMI 1640 medium containing 5% fetal bovine serum and 2 mM L-glutamine. For a typical screening experiment, cells were inoculated into 96 well microtiter plates in 100 μL at plating densities ranging from 5,000 to 40,000 cells/well depending on the doubling time of individual cell lines. After cell inoculation, the microtiter plates were incubated at 37° C., 5% CO2, 95% air and 100% relative humidity for 24 hours prior to addition of the compounds.
# (§2) After 24 hours, two plates of each cell line were fixed in situ with TCA, to represent a measurement of the cell population for each cell line at the time of drug addition (Tz). Compounds were solubilized in dimethyl sulfoxide at 400-fold the desired final maximum test concentration and stored frozen prior to use. At the time of drug addition, an aliquot of frozen concentrate was thawed and diluted to twice the desired final maximum test concentration with complete medium containing 50 μg/ml gentamicin. Additional four, 10-fold or ½ log serial dilutions were made to provide a total of five compound concentrations plus control. Aliquots of 100 μl of these different drug dilutions were added to the appropriate microtiter wells already containing 100 μl of medium, resulting in the required final compound concentrations.
# (§3) Following drug addition, the plates were incubated for an additional 48 hours at 37° C., 5% CO2, 95% air, and 100% relative humidity. For adherent cells, the assay was terminated by the addition of cold TCA. Cells were fixed in situ by the gentle addition of 50 μl of cold 50% (w/v) TCA (final concentration, 10% TCA) and incubated for 60 minutes at 4° C. The supernatant was discarded, and the plates were washed five times with tap water and air dried. Sulforhodamine B (SRB) solution (100 μl) at 0.4% (w/v) in 1% acetic acid was added to each well, and plates were incubated for 10 minutes at room temperature. After staining, unbound dye was removed by washing five times with 1% acetic acid and the plates were air dried. Bound stain was subsequently solubilized with 10 mM trizma base, and the absorbance was read on an automated plate reader at a wavelength of 515 nm. For suspension cells, the methodology was the same except that the assay was terminated by fixing settled cells at the bottom of the wells by gently adding 50 μl of 80% TCA (final concentration, 16% TCA). Using the seven absorbance measurements (time zero, (Tz), control growth, (C), and test growth in the presence of drug at the five concentration levels (Ti)), the percentage growth was calculated at each of the compound concentrations levels. Percentage growth inhibition was calculated as:
# (§4) [(Ti−Tz)/(C−Tz)]×100 for concentrations for which Ti>/=Tz
# (§5) [(Ti−Tz)/Tz]×100 for concentrations for which Ti<Tz.
# [2] = tested on: HL-60(TB); assay: NCI-60 screen, Leukemia; format: cell-based, human; conditions: 10 μM
# Protocol: as §1, §2, §3, §4, §5
# (§6) Three dose response parameters were calculated for each compound. Growth inhibition of 50% (GI50) was calculated from [(Ti−Tz)/(C−Tz)]×100=50, which is the compound concentration resulting in a 50% reduction in the net protein increase (as measured by SRB staining) in control cells during the compound incubation. The compound concentration resulting in total growth inhibition (TGI) was calculated from Ti=Tz. The LC50 (concentration of compound resulting in a 50% reduction in the measured protein at the end of the compound treatment as compared to that at the beginning) indicating a net loss of cells following treatment was calculated from [(Ti−Tz)/Tz]×100=−50. Values were calculated for each of these three parameters if the level of activity was reached; however, if the effect was not reached or was exceeded, the value for that parameter was expressed as greater or less than the maximum or minimum concentration tested.
# [3] = tested on: K-562; assay: NCI-60 screen, Leukemia; format: cell-based, human; conditions: 10 μM
# Protocol: as §1, §2, §3, §4, §5, §6
# [4] = tested on: MOLT-4; assay: NCI-60 screen, Leukemia; format: cell-based, human; conditions: 10 μM
# Protocol: as §1, §2, §3, §4, §5, §6
# [5] = tested on: RPMI-8226; assay: NCI-60 screen, Leukemia; format: cell-based, human; conditions: 10 μM
# Protocol: as §1, §2, §3, §4, §5, §6
# [6] = tested on: SR; assay: NCI-60 screen, Leukemia; format: cell-based, human; conditions: 10 μM
# Protocol: as §1, §2, §3, §4, §5, §6
# [7] = tested on: 786-0; assay: NCI-60 screen, Renal Cancer; format: cell-based, human; conditions: 10 μM
# Protocol: as §1, §2, §3, §4, §5, §6
# [8] = tested on: human red blood cells; assay: Lysis of human red blood cells (HC50); format: cell-based
# [9] = tested on: MCF-7 (ATCC HTB-22); assay: XTT cell viability assay, growth inhibition; format: cell-based, human
# Protocol: (§7) Compound A was tested against two human breast cancer cell lines, MCF-7 (ATCC HTB-22) and TMX2-28, and one non-tumorigenic breast cell line, MCF-10A (ATCC CRL-10317). MCF-7 and TMX2-28 cells were grown in DC5 cell growth media while the MCF-10A cells were grown in MEGM, both supplemented with 5% bovine growth serum. The cells were grown using standard techniques. Cell cultures at 50% confluence were harvested with trypsin, seeded onto sterile 96 well plates at a density of 10,000 cells/well and allowed to grow overnight to 50% confluence. Compound A was then added to the growth medium and allowed to further incubate for 48 hours. Viable cells were quantitated using an XTT assay (purchased from Roche).
# [10] = tested on: TMX2-28; assay: XTT cell viability assay, growth inhibition; format: cell-based, human
# Protocol: as §7
# [11] = tested on: MCF-10A (ATCC CRL-10317); assay: XTT cell viability assay, growth inhibition; format: cell-based; conditions: Homo sapiens, MCF10A, non-tumorigenic, 48 hours incubation
# Protocol: as §7
# [12] = tested on: E. coli D31
# [13] = tested on: S. typhymurium ATTC 29631
# [14] = tested on: HS 578T; assay: NCI-60 screen, Breast Cancer; format: cell-based, human; conditions: 10 μM
# Summary of the method: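 Compounds were tested at a single 10 μM concentration on cells grown in RPMI 1640 with 5% FBS and 2 mM L-glutamine, plated 24 h before dosing. After 48 h at 37 °C, cells were TCA-fixed and SRB-stained, and absorbance was read at 515 nm. Percent growth is relative to time-zero and untreated control plates.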
Compound,inhibition at 10 µM [1],NCI Screen Mean % Growth [1],Percent Growth [2],Percent Growth [3],Percent Growth [4],Percent Growth [5],Percent Growth [6],Percent Growth [7],50% lysis (HC50) [8],"IC90 ([9]; Homo sapiens, MCF7, MCF-7, tumorigenic, 48 hours incubation, XTT)",Selectivity IC90/IC90 MCF10A ([9]; MCF-7 versus MCF10A),"IC90 ([10]; Homo sapiens, TMX2-28, tumorigenic, 48 hours incubation, XTT)",Selectivity IC90/IC90 MCF10A ([10]; TMX2-28 versus MCF10A),IC90 [11],potent cytotoxicity against bacteria (concentration) [12],potent cytotoxicity against bacteria (concentration) [13],Percent Growth [14]
N=C(N)NCCCCC(=O)Nc1cc(C(F)(F)F)cc(NC(=O)Nc2ccc(NC(=O)Nc3cc(C(F)(F)F)cc(NC(=O)CCCCNC(=N)N)c3OC3CCNC3)cc2)c1OC1CCNC1 (centres unmarked) [Compound B],> 30%,56.58%,58.59%,38.56%,63.33%,49.97%,77.31%,58.61%,–,–,–,–,–,–,–,–,–
N=C(N)NCCCCC(=O)Nc1cc(C(F)(F)F)cc(NC(=O)c2cc(C(=O)Nc3cc(C(F)(F)F)cc(NC(=O)CCCCNC(=N)N)c3SCCN)ncn2)c1SCCN [Compound C],> 30%,43.48%,30.11%,4.995%,45.62%,–,28.12%,–,–,–,–,–,–,–,–,–,–
NCCc1cc(Br)cc(C#Cc2cccc(C#Cc3cc(Br)cc(CCN)c3)c2)c1 [Compound A],–,–,6.88%,−45.67%,−43.65%,9.497%,−43.87%,−26.78%,75 µg/mL,6.3 µg/mL,2,6.3 µg/mL,2,12.5 µg/mL,0.8 to 1.6 µg/mL,0.8 to 1.6 µg/mL,–
NCCCc1cccc(-c2ccc3oc4ccc(-c5cccc(CCCN)c5)cc4c3c2)c1 [Compound G],> 30%,49.56%,46.37%,2.899%,−6.401%,65.28%,−19.6%,5.487%,–,–,–,–,–,–,–,–,100.4%
NCCSc1cc(SCCN)c(C(F)(F)F)cc1NC(=O)c1cc(C(=O)Nc2cc(C(F)(F)F)c(SCCN)cc2SCCN)ncn1 [Compound F],> 30%,41.28%,82.57%,96.34%,82.85%,–,51.7%,50.09%,–,–,–,–,–,–,–,–,–
c1cc(-c2ccc3sc4ccc(-c5ccnc(N6CCNCC6)c5)cc4c3c2)cc(N2CCNCC2)n1 [Compound E],–,–,−24.59%,−70.89%,−75.28%,–,−60.7%,–,–,–,–,–,–,–,–,–,–
NCCCc1cccc(-c2ccc3sc4ccc(-c5cccc(CCCN)c5)cc4c3c2)c1 [Compound D],> 30%,67.91%,68.33%,12.99%,2.072%,62.06%,0%,79.48%,–,–,–,–,–,–,–,–,–

# From patent publication US20120115877A1, “Facially Amphiphilic Compounds, Compositions, And Uses Thereof In Treating Cancer” (POLYMEDIX, INC., priority 2010, published 2012)
